Assay results taken from patent US20210238187A1, “AZIRIDINE CONTAINING EPOTHILONE ANALOGS, METHODS OF SYNTHESIS, METHODS OF TREATMENT, AND DRUG CONJUGATES” (WILLIAM MARSH RICE UNIVERSITY, priority 2017, published 2021).
Like-named read-outs stand apart in the source and are kept apart here.

Assays:
Tubulin = Tubulin assembly induction; format: biochemical
MES SA DX = test: Cytotoxicity assay (CellTiter-Glo), MES SA DX; format: cell-based, human; settings: Homo sapiens, read-out: Cancer cell lines IC50, MES SA DX
NCI/ADR-RES = test: Cytotoxicity (GI50) assay, NCI/ADR-RES; format: cell-based, human; settings: read-out: Cancer cell lines GI50, NCI/ADR-RES
OVCAR-8 = test: Cytotoxicity (GI50) assay, OVCAR-8; format: cell-based, human; settings: OVCAR-8; human ovarian cancer cell line; read-out: Cancer cell lines GI50, OVCAR-8
SNB-75 = test: Cytotoxicity (GI50) assay, SNB-75; format: cell-based, human; settings: SNB-75; human glioblastoma cell line; read-out: Cancer cell lines GI50, SNB-75
MDA-MB-435 = test: Cytotoxicity (GI50) assay, MDA-MB-435; format: cell-based, human; settings: MDA-MB-435; human melanoma cell line; read-out: Cancer cell lines GI50, MDA-MB-435
MCF-7 = test: Cytotoxicity (GI50) assay, MCF-7; format: cell-based, human; settings: MCF7; human breast cancer cell line; concentration required to decrease cell growth by 50%; read-out: Cancer cell lines GI50, MCF-7
MES SA = test: Cytotoxicity assay (CellTiter-Glo), MES SA; format: cell-based, human; settings: MES-SA; human uterine sarcoma cell line; 72 hours, CellTiter-Glo; read-out: Cancer cell lines IC50, MES SA
[1] = MES SA cell line with marked multidrug resistance, 72 hours, CellTiter-Glo
[2] = Homo sapiens, NCI/ADR-RES, highly drug resistant human ovarian cancer cell line

Structure (SMILES) | EC50 (Tubulin; […]) [nM] | IC50 (MES SA DX; [1]) [nM] | GI50 (NCI/ADR-RES; [2]) [nM] | GI50 (OVCAR-8) [nM] | GI50 (SNB-75) [nM] | GI50 (MDA-MB-435) [nM] | GI50 (MCF-7) [nM] | IC50 (MES SA) [nM] | EC50 (Tubulin) [nM] | GI50 (NCI/ADR-RES; highly drug resistant human ovarian cancer cell line) [nM] | IC50 (MES SA DX; MES-SA, 72 h) [nM] | GI50 (NCI/ADR-RES; Homo sapiens, NCI/ADR-RES) [nM]
C/C(=C\c1nc2ccccc2s1)[C@@H]1C[C@@H]2N(CCO)[C@]2(C)CCC[C@H](C)[C@H](O)[C@@H](C)C(=O)C(C)(C)[C@@H](O)CC(=O)O1 (stereo partly drawn) [compound 24, (1S,3S,7S,10R,11S,12S,16R)-3-[(1E)-1-(1,3-Benzothiazol-2-yl)prop-1-en-2-yl]-7,11-dihydroxy-17-(2-hydroxyethyl)-8,8,10,12,16-pentamethyl-4-oxa-17-azabicyclo[14.1.0]heptadecane-5,9-dione] | 7900 | 1.32 | 630 | 23 | 12 | 3.5 | 11 | 0.18 |  |  |  | 
CC(=Cc1csc(C)n1)C1CC=CCCCC(C)C(O)C(C)C(=O)C(C)(C)C(O)CC(=O)O1 (stereo not drawn) [compound 3, epothilone C, reference compound] |  |  |  | 110 |  |  | 70 | 31.5 | 18000 |  |  | 
C/C(=C\c1ccccn1)[C@@H]1C[C@@H]2N(CCO)[C@]2(C)CCC[C@H](C)[C@H](O)[C@@H](C)C(=O)C(C)(C)[C@@H](O)CC(=O)O1 (stereo partly drawn) [compound 21, (1S,3S,7S,10R,11S,12S,16R)-7,11-Dihydroxy-17-(2-hydroxyethyl)-8,8,10,12,16-pentamethyl-3-[(1E)-1-(pyridin-2-yl)prop-1-en-2-yl]-4-oxa-17-azabicyclo[14.1.0]heptadecane-5,9-dione] | > 60000 | 764 | 4000 | 170 | 98 | 30 | 250 | 0.685 |  |  |  | 
C/C(=C\c1csc(N)n1)[C@@H]1C[C@@H]2N(CCO)[C@]2(C)CCC[C@H](C)[C@H](O)[C@@H](C)C(=O)C(C)(C)[C@@H](O)CC(=O)O1 (stereo partly drawn) [compound 15, (1S,3S,7S,10R,11S,12S,16R)-3-[(1E)-1-(2-Amino-1,3-thiazol-4-yl)prop-1-en-2-yl]-7,11-dihydroxy-17-(2-hydroxyethyl)-8,8,10,12,16-pentamethyl-4-oxa-17-azabicyclo[14.1.0]heptadecane-5,9-dione] | 13000 | > 1000 | 3800 | 290 | 280 | 220 | 330 | 36.4 |  |  |  | 
CSc1cc(/C=C(\C)[C@@H]2C[C@@H]3N(CCO)[C@]3(C)CCC[C@H](C)[C@H](O)[C@@H](C)C(=O)C(C)(C)[C@@H](O)CC(=O)O2)nn1C (stereo partly drawn) [compound 23, (1S,3S,7S,10R,11S,12S,16R)-7,11-Dihydroxy-17-(2-hydroxyethyl)-8,8,10,12,16-pentamethyl-3-{(1E)-1-[1-methyl-5-(methylsulfanyl)-1H-pyrazol-3-yl]prop-1-en-2-yl}-4-oxa-17-azabicyclo[14.1.0]heptadecane-5,9-dione] | 4600 | 37.8 |  | 10 | 10 | 12 | 78 | 0.22 |  |  |  | 
C/C(=C\c1csc(C)n1)[C@@H]1C[C@@H]2N(CCO)[C@]2(C)CCC[C@H](C)[C@H](O)[C@@H](C)C(=O)C(C)(C)[C@@H](O)CC(=O)O1 (stereo partly drawn) [compound 11, (1S,3S,7S,10R,11S,12S,16R)-7,11-Dihydroxy-17-(2-hydroxyethyl)-8,8,10,12,16-pentamethyl-3-[(1E)-1-(2-methyl-1,3-thiazol-4-yl)prop-1-en-2-yl]-4-oxa-17-azabicyclo[14.1.0]heptadecane-5,9-dione] | 18000 | 13.7 | 55 | 4.5 |  |  | 3 | 0.94 |  |  |  | 
CSc1nc(/C=C(\C)[C@@H]2C[C@@H]3N(CCO)[C@]3(C)CCC[C@H](C)[C@H](O)[C@@H](C)C(=O)C(C)(C)[C@@H](O)CC(=O)O2)cs1 (stereo partly drawn) [compound 12, (1S,3S,7S,10R,11S,12S,16R)-7,11-Dihydroxy-17-(2-hydroxyethyl)-8,8,10,12,16-pentamethyl-3-{(1E)-1-[2-(methylsulfanyl)-1,3-thiazol-4-yl]prop-1-en-2-yl}-4-oxa-17-azabicyclo[14.1.0]-heptadecane-5,9-dione] | 14000 | 0.66 | 55 | 75 | 60 | 42 | 28 | 0.13 |  |  |  | 
C/C(=C\c1csc(CN)n1)[C@@H]1C[C@@H]2N(CCO)[C@]2(C)CCC[C@H](C)[C@H](O)[C@@H](C)C(=O)C(C)(C)[C@@H](O)CC(=O)O1 (stereo partly drawn) [compound 13, (1S,3S,7S,10R,11S,12S,16R)-3-{(1E)-1-[2-(Aminomethyl)-1,3-thiazol-4-yl]prop-1-en-2-yl}-7,11-dihydroxy-17-(2-hydroxyethyl)-8,8,10,12,16-pentamethyl-4-oxa-17-azabicyclo[14.1.0]heptadecane-5,9-dione] | > 60000 | 0.85 | 2800 | 93 | 130 | 20 | 65 | 0.078 |  |  |  | 
CSc1nc(/C=C(\C)[C@@H]2C[C@@H]3N(CCN=[N+]=[N-])[C@]3(C)CCC[C@H](C)[C@H](O)[C@@H](C)C(=O)C(C)(C)[C@@H](O)CC(=O)O2)cs1 (stereo partly drawn) [compound 34, (1S,3S,7S,10R,11S,12S,16R)-17-(2-Azidoethyl)-7,11-dihydroxy-8,8,10,12,16-pentamethyl-3-{(1E)-1-[2-(methylsulfanyl)-1,3-thiazol-4-yl]prop-1-en-2-yl}-4-oxa-17-azabicyclo[14.1.0]heptadecane-5,9-dione] | 5400 | 0.52 | 3.2 to 8.8 | 15 | 22 | 7.3 | 13 | 0.24 |  | 3.2 |  | 
CSc1nc(/C=C(\C)[C@@H]2C[C@@H]3N[C@]3(C)CCC[C@H](C)[C@H](O)[C@@H](C)C(=O)C(C)(C)[C@@H](O)CC(=O)O2)cs1 [compound 14, (1S,3S,7S,10R,11S,12S,16R)-7,11-Dihydroxy-8,8,10,12,16-pentamethyl-3-{(1E)-1-[2-(methyl-sulfanyl)-1,3-thiazol-4-yl]prop-1-en-2-yl}-4-oxa-17-azabicyclo[14.1.0]heptadecane-5,9-dione] | 5000 | 5.66 |  | 16 | 11 | 4.5 | 4 | 0.28 |  |  |  | 
CSc1nc(/C=C(\C)[C@@H]2C[C@@H]3N(CC4CC4)[C@]3(C)CCC[C@H](C)[C@H](O)[C@@H](C)C(=O)C(C)(C)[C@@H](O)CC(=O)O2)cs1 (stereo partly drawn) [compound 38, (1S,3S,7S,10R,11S,12S,16R)-17-(Cyclopropylmethyl)-7,11-dihydroxy-8,8,10,12,16-pentamethyl-3-{(1E)-1-[2-(methylsulfanyl)-1,3-thiazol-4-yl]prop-1-en-2-yl}-4-oxa-17-azabicyclo-[14.1.0]heptadecane-5,9-dione] | 5100 | 1.26 | 18 | 15 | 16 | 9.5 | 18 | 0.056 |  |  |  | 
C/C(=C\c1csc(CCN)n1)[C@@H]1C[C@@H]2N(CCO)[C@]2(C)CCC[C@H](C)[C@H](O)[C@@H](C)C(=O)C(C)(C)[C@@H](O)CC(=O)O1 (stereo partly drawn) [compound 20, (1S,3S,7S,10R,11S,12S,16R)-3-{(1E)-1-[2-(2-Aminoethyl)-1,3-thiazol-4-yl]prop-1-en-2-yl}-7,11-dihydroxy-17-(2-hydroxyethyl)-8,8,10,12,16-pentamethyl-4-oxa-17-azabicyclo[14.1.0]heptadecane-5,9-dione] | 9100 | > 2500 | 45 | 8.6 | 50 | 3.8 | 15 | 16.1 |  |  |  | 
CC(=Cc1csc(C)n1)C1CC2OC2CCCC(C)C(O)C(C)C(=O)C(C)(C)C(O)CC(=O)O1 (stereo not drawn) [compound 1, epothilone A] |  |  |  | 20 | 26 | 16 | 17 | 1.46 | 22000 |  | 5.12 | 78
C/C(=C\c1csc(C)n1)[C@@H]1C[C@@H]2O[C@]2(C)CCC[C@H](C)[C@H](O)[C@@H](C)C(=O)C(C)(C)[C@@H](O)CC(=O)N1 [compound 5, ixabepilone, reference compound] | 4500 |  | 1400 |  |  |  |  |  |  |  |  | 
C/C(=C\c1csc(C)n1)[C@@H]1C[C@@H]2N[C@]2(C)CCC[C@H](C)[C@H](O)[C@@H](C)C(=O)C(C)(C)[C@@H](O)CC(=O)O1 [compound 10, (1S,3S,7S,10R,11S,12S,16R)-7,11-Dihydroxy-8,8,10,12,16-pentamethyl-3-[(1E)-1-(2-methyl-1,3-thiazol-4-yl)prop-1-en-2-yl]-4-oxa-17-azabicyclo[14.1.0]heptadecane-5,9-dione] | 19000 | 0.51 | 35 | 1.5 |  |  | 2 | 0.04 |  |  |  | 
